Measured values taken from patent US8278309B2, “Synthetic mimetics of host defense and uses thereof” (priority 2008, dated 2012).
Where a name gives a salt, the structure may show the parent alone. Read-outs that look alike come from different tables or passages of the source.

Legend:
in vivo = details: mouse, iv
Protocol: Maximum tolerated dose (MTD) determinations were made in ascending/descending dose studies in mice and rats. Compound A was administered by either i.v. bolus injection in the tail vein of mice and rats or by i.v. infusion via catheter in the femoral vein of rats. At each dose, two to three animals were administered compound and clinical signs were recorded over a 4 to 7 day period. Gross necropsy was performed at the conclusion of the study.

[1] = Saturation solubility in excipients; assay type: physicochemical; details: for solubility: thermodynamic from solid
S. aureus = assay: MIC or MIC90 vs S. aureus (selectivity table); assay type: cell-based; details: Staphylococcus aureus; * marks MIC90
Staph. saprophyticus = assay: MIC broth microdilution, Gram-positive clinical isolates; assay type: cell-based; details: Staphylococcus saprophyticus; Staph. saprophyticus; 2-3 isolates/organism; read-out: MIC
Protocol: (§1) Compound A was evaluated in vitro in accordance with defined CLSI documents specific to the organisms (aerobic, anaerobic or yeast) tested in this study. Ampicillin, ceftazidime, cefuroxime, ciprofloxacin, linezolid, and vancomycin were tested alongside as comparator agents for aerobic bacteria; clindamycin and metronidazole were tested as comparators for anaerobes; fluconazole was tested as a comparator for yeast isolates. Stock solutions of Compound A were prepared in dimethyl sulfoxide (DMSO). Ampicillin, ceftazidime, cefuroxime, ciprofloxacin, linezolid, vancomycin, metronidazole, clindamycin, and fluconazole were prepared each according to its manufacturer's guideline.
(§2) Minimum inhibitory concentrations (MICs) in μg/ml were determined according to CLSI guideline M7-A7 by broth microdilution. All aerobes were tested using Mueller-Hinton broth medium with the exception of Streptococcus spp., which were tested using cation-adjusted Mueller-Hinton broth supplemented with 2-5% lysed horse blood.

Entero. faecium (VRE) = assay: as above; assay type: cell-based; details: Enterococcus faecium; Entero. faecium (VRE); 2-3 isolates/organism; read-out: MIC
Protocol: as §1, §2

Strept. pyogenes = assay: as above; assay type: cell-based; details: Streptococcus pyogenes; Strept. pyogenes; 2-3 isolates/organism; read-out: MIC
Protocol: as §1, §2

Strept. viridians = assay: as above; assay type: cell-based; details: Strept. viridians; 2-3 isolates/organism; read-out: MIC
Protocol: as §1, §2

Entero. faecalis = assay: as above; assay type: cell-based; details: Enterococcus faecalis; Entero. faecalis; 2-3 isolates/organism; read-out: MIC
Protocol: as §1, §2

Staph. spidermidis = assay: as above; assay type: cell-based; details: Staph. spidermidis; 2-3 isolates/organism; read-out: MIC
Protocol: as §1, §2

Staph. aureus (MRSA) = assay: as above; assay type: cell-based; details: Staphylococcus aureus; Staph. aureus (MRSA); 2-3 isolates/organism; read-out: MIC
Protocol: as §1, §2

Staph. spp. (coagulase−) = assay: as above; assay type: cell-based; details: Staph. spp. (coagulase−); 2-3 isolates/organism; read-out: MIC
Protocol: as §1, §2

Strept. pneumoniae = assay: as above; assay type: cell-based; details: Streptococcus pneumoniae; Strept. pneumoniae; 2-3 isolates/organism; read-out: MIC
Protocol: as §1, §2

Strept. agalactiae = assay: as above; assay type: cell-based; details: Streptococcus agalactiae; Strept. agalactiae; 2-3 isolates/organism; read-out: MIC
Protocol: as §1, §2

MSSA 27660 = assay: Mouse peritonitis/sepsis model against MSSA 27660; assay type: in vivo
Pharmacokinetics in rats = assay type: in vivo; details: Crl:CD (SD), plasma, iv; rat, 5 mg/kg, i.v. bolus
Protocol: Crl:CD (SD) rats were administered Compound A by i.v. bolus injection at the indicated dosages. Plasma was prepared from blood samples taken at 9 time points (n=3) over 28 hours. Compound levels were determine by HPLC-MS/MS. All animals were fitted with two jugular vein cannula (JVC), one each for dose administration and blood collection. Each route of administration was dosed as N=3. Animals were supplied with a commercial rodent diet and water ad libitum. Each rat received a bolus dosed via the appropriate route of administration at time zero on the day of dosing.
Each blood sample was collected from the rats via a JVC and placed into chilled polypropylene tubes containing sodium EDTA as an anticoagulant. Samples were centrifuged at a temperature of 4° C. and at a speed of 13,000 rpm for 5 minutes. Samples were maintained chilled throughout processing. Each plasma sample was then transferred into labeled polypropylene tubes, placed on dry ice, and stored in a freezer set to maintain −60° C. to −80° C.
Plasma study samples were extracted and analyzed using a previously developed method. A single standard curve and six replicates of quality control samples at three concentrations were extracted using DMSO containing 0.1% formic acid. Plasma samples (50 μL) were added to 150 μL solvent and centrifuged. Supernatants were analyzed by LC/MSMS using a Perkin Elmer series 200 micropump and PE Sciex API4000 Electrospray mass spectrometer. Standard curves were prepared at concentrations of 10000, 5000, 1000, 500, 250, 100, 50 and 25 ng/mL. Quality control samples were prepared at concentrations of 5000, 500, and 50 ng/mL. The standard curve and quality control samples were prepared from independently prepared stock solutions. At least ⅝ of standards must have accuracy within ±15%, except at the LLOQ where ±20% is acceptable. Two thirds of the batch QCs must have accuracy within ±15% of nominal, and at least one QC must pass at each level in order for the run to be accepted.
Individual plasma concentration versus time data for Compound A was subjected to non-compartmental analysis using the pharmacokinetic program WinNonlin v4.1. Plasma concentrations below the limit of quantitation (25 ng/ml) were assigned a value of zero for pharmacokinetic analysis. Nominal dosing concentrations were used in all calculations.

In the case of N=C(N)NCCCCC(=O)Nc1cc(C(F)(F)F)cc(NC(=O)c2cc(C(=O)Nc3cc(C(F)(F)F)cc(NC(=O)CCCCNC(=N)N)c3O[C@H]3CCNC3)ncn2)c1O[C@H]1CCNC1 [Compound A, pyrimidine-4,6-dicarboxylic acid bis-{[3-(5-guanidino-pentanoylamino)-2-((R)-pyrrolidin-3-yloxy)-5-trifluoromethyl-phenyl]-amide}tetrahydrochloride], the MTD (in vivo) is reported as 30 mg/kg, the “behaviour of formulation at saturation” value ([1]; 0.9% and 1.2% sodium chloride solution) is reported as “formed a viscous yellow gel” and the solubility ([1]; 15% w/v glycerin in purified water, 25 °C, aqueous with cosolvent or surfactant or cyclodextrin, 15% w/v glycerin in purified water, read-out: saturation solubility at 25° C. (free base)) is reported as 63.5 mg/mL. For the same compound, the solubility ([1]; 15% w/v propylene glycol in purified water, 25 °C, aqueous with cosolvent or surfactant or cyclodextrin, 15% w/v propylene glycol in purified water, read-out: saturation solubility at 25° C. (free base)) was 64.9 mg/mL, the solubility ([1]; 20% w/v Kleptose in purified water, 25 °C, aqueous with cosolvent or surfactant or cyclodextrin, 20% w/v Kleptose in purified water, read-out: saturation solubility at 25° C. (free base)) was 79.7 mg/mL and the “behaviour of formulation at saturation” value ([1]; 20-50% w/v propylene glycol in saline) was “formation of a viscous yellow gel”. The solubility ([1]; 25% w/v Captisol in purified water, 25 °C, aqueous with cosolvent or surfactant or cyclodextrin, 25% w/v Captisol in purified water, read-out: saturation solubility at 25° C. (free base)) was 64.3 mg/mL, the solubility ([1]; 30% w/v glycerin in purified water, 25 °C, aqueous with cosolvent or surfactant or cyclodextrin, 30% w/v glycerin in purified water, read-out: saturation solubility at 25° C. (free base)) was 63.1 mg/mL and the solubility ([1]; 30% w/v propylene glycol and 5 w/v ethanol in purified water, 25 °C, aqueous with cosolvent or surfactant or cyclodextrin, 30% w/v propylene glycol and 5 w/v ethanol in purified water, read-out: saturation solubility at 25° C. (free base)) was 43.9 mg/mL. For the same compound, the solubility ([1]; 30% w/v propylene glycol in purified water, 25 °C, aqueous with cosolvent or surfactant or cyclodextrin, 30% w/v propylene glycol in purified water, gelled during centrifugation but liquefied on standing, read-out: saturation solubility at 25° C. (free base)) was 59.1 mg/mL, the solubility ([1]; 40% w/v Kleptose in purified water, 25 °C, aqueous with cosolvent or surfactant or cyclodextrin, 40% w/v Kleptose in purified water, read-out: saturation solubility at 25° C. (free base)) was 102 mg/mL and the solubility ([1]; 50% w/v glycerin in purified water, 25 °C, aqueous with cosolvent or surfactant or cyclodextrin, 50% w/v glycerin in purified water, read-out: saturation solubility at 25° C. (free base)) was 56.8 mg/mL. For the same compound, the solubility ([1]; 50% w/v propylene glycol in purified water, 25 °C, aqueous with cosolvent or surfactant or cyclodextrin, 50% w/v propylene glycol in purified water, read-out: saturation solubility at 25° C. (free base)) was 74.7 mg/mL, the “saturation solubility at 25° C. (free base)” value ([1]; Citric Acid/Sodium Citrate (pH 5)) was 11.2 mg/mL and the solubility ([1]; DMA, 25 °C, organic solvent or mixture, DMA, read-out: saturation solubility at 25° C. (free base)) was 0.6 mg/mL. It also gave a solubility ([1]; PEG 400, 25 °C, organic solvent or mixture, PEG 400, read-out: saturation solubility at 25° C. (free base)) of 18.5 mg/mL, a solubility ([1]; Tris(hydroxymethyl)aminomethane buffer, 25 °C, pH 7.4, aqueous buffer, pH 7.4, read-out: solubility) of 61.4 mg/mL and a solubility ([1]; benzyl alcohol, 25 °C, organic solvent or mixture, Benzyl alcohol, read-out: saturation solubility at 25° C. (free base)) of 1.83 mg/mL. It also gave a solubility ([1]; citric acid/sodium citrate buffer, 25 °C, pH 3, aqueous buffer, Citric Acid/Sodium Citrate (pH 3), read-out: saturation solubility at 25° C. (free base)) of 65.5 mg/mL, a solubility ([1]; citric acid/sodium citrate buffer, 25 °C, pH 5, aqueous buffer, Citric Acid/Sodium Citrate (pH 5), read-out: saturation solubility at 25° C. (free base)) of 12.1 mg/mL and a solubility ([1]; ethanol, 25 °C, organic solvent or mixture, Ethanol, read-out: saturation solubility at 25° C. (free base)) of 1.13 mg/mL. The solubility ([1]; glycerin, 25 °C, organic solvent or mixture, Glycerin, read-out: saturation solubility at 25° C. (free base)) was 53 mg/mL, the solubility ([1]; propylene glycol, 25 °C, organic solvent or mixture, Propylene Glycol, read-out: saturation solubility at 25° C. (free base)) was 90 mg/mL and the solubility ([1]; purified water, 25 °C, water, Purified Water, read-out: saturation solubility at 25° C. (free base)) was 65 mg/mL. The solubility ([1]; tris(hydroxymethyl)aminomethane HCl buffer, 25 °C, pH 7, aqueous buffer, Tris(hydroxymethyl)amino methane HCl (pH 7.0), read-out: saturation solubility at 25° C. (free base)) was 61.4 mg/mL, the MIC90 (S. aureus) was 1 µg/mL and the MIC (Staph. saprophyticus) was 0.25 to 0.5 µg/mL. For the same compound, the MIC (Entero. faecium (VRE)) was 1 µg/mL, the MIC (Strept. pyogenes) was 1 to 4 µg/mL and the MIC (Strept. viridians) was 2 to 8 µg/mL. The MIC (Entero. faecalis) was 1 µg/mL, the MIC (Staph. spidermidis) was 0.25 to 0.5 µg/mL and the MIC (Staph. aureus (MRSA)) was 0.5 to 1 µg/mL. For the same compound, the MIC (Staph. spp. (coagulase−)) was 0.25 to 0.5 µg/mL, the MIC (Strept. pneumoniae) was 4 to 8 µg/mL and the MIC (Strept. agalactiae) was 2 µg/mL. For the same compound, the efficacy in vivo (MSSA 27660) was “efficacious”, the Cmax (Pharmacokinetics in rats) was 89.2 µg/mL and the Vd (Pharmacokinetics in rats) was 0.11 L/kg. It also gave a clearance (Pharmacokinetics in rats) of 0.467 mL/min/kg and a half-life (Pharmacokinetics in rats) of 3 h.
